ChEMBL document CHEMBL1145947, “Generation of bis-cationic heterocyclic inhibitors of Bacillus subtilis HPr kinase/phosphatase from a ditopic dynamic combinatorial library” (J Med Chem, 2003)

Tests used:
HPr kinase/phosphorylase [1] = target: T1, HPr kinase/phosphorylase (Bacillus subtilis (strain 168), UniProt O34483); assay: Inhibition of bifunctional enzyme HPr kinase/phosphatase from Bacillus subtilis at pH 7.0 and hill coefficient of 1.4
T1 sequence (O34483 whole entry): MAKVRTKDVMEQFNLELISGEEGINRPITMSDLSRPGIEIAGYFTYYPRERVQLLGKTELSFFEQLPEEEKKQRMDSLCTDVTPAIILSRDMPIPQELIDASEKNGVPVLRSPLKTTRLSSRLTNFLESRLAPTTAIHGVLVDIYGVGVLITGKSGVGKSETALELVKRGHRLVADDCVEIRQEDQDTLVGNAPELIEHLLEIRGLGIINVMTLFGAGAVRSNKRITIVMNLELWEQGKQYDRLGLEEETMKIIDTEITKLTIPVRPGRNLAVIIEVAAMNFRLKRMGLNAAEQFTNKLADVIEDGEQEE

HPr kinase/phosphorylase [2] = target: T1, HPr kinase/phosphorylase; assay: Inhibition of bifunctional enzyme HPr kinase/phosphatase from Bacillus subtilis at pH 8.0 and hill coefficient of 2.9

IC50 (HPr kinase/phosphorylase [1]): 17 µM
IC50 (HPr kinase/phosphorylase [2]): 18 µM
Compound: N=c1n(CC(=O)N/N=C/c2ccc(/C=N/NC(=O)Cn3c(=N)n(Cc4ccccc4)c4ccccc43)cc2)c2ccccc2n1Cc1ccccc1
